Assay results as given in PubChem BioAssay AID504322 (Emory University Molecular Libraries Screening Center, 2011).
Active and inactive are the calls of the source. The rule behind the calls is not given here.

What follows are molecules tested on CHOP reporter cell assay, percent of control (assay: CHOP reporter inhibitor potency, dose response, cell-based (AID 504322);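 note: CHO cells carrying a CHOP reporter stimulated with tunicamycin to induce ER stress; potency is for inhibition of the stress-induced reporter signal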).

SMILES	IC50
CN(C)c1ccc(-c2nc3ccccn3c2/N=C/c2ccc(Br)cc2)cc1	7.04 µM
CC1=C/C(=N\OS(=O)(=O)c2ccccc2)C(C)=CC1=O	0.9 µM
COc1cc(CNCc2ccccn2)ccc1OCc1ccc(Cl)cc1Cl	6.74 µM (inactive)
COc1ccc(C(=O)/C=C/C(=O)N(CC(=O)NC2CCCCC2)Cc2cccs2)c(O)c1	9.94 µM (inactive)
CCOC(=O)CN1C(c2ccc(O)cc2)Nc2ccc(Br)cc2C1c1ccccc1 (configuration not stated)	9.53 µM (inactive)
Cc1nnc(NC(=O)c2sc3nc(-c4cccs4)cc(C(F)(F)F)c3c2N)s1	5.97 µM (inactive)
COc1ccc(/C=N\NC(=O)COc2ccc(C(C)(C)C)cc2)cc1Cn1nc(C)cc1C	2.99 µM
CCCCC(CC)Cn1c(N)c(C#N)c2nc3ccccc3nc21 (configuration not stated)	3.98 µM
CCOC(=O)c1[nH]c2ccc(Cl)cc2c1-c1ccccc1	9.7 µM (inactive)
Oc1cccc(-c2nc3c4c(ncn3n2)-c2ccccc2CC42CCCC2)c1	5.25 µM (inactive)
CN1/C(=C/C(=O)c2nc(S(C)(=O)=O)ncc2Cl)C(C)(C)c2ccccc21	< 0.16 µM
C=C(C)COc1ccc(-c2n[nH]c(C)c2-c2ccccc2OC)c(O)c1	> 10 µM (inactive)
Cc1cc(C)n(-c2nc(Nc3ccccc3C(F)(F)F)nc(-n3nc(C)cc3C)n2)n1	3.93 µM (inactive)
O=S(=O)(NCC(Nc1ccc(Cl)cc1)c1ccccc1)c1ccc(Cl)cc1 (configuration not stated)	6.69 µM (inactive)
CCCCn1c(=O)[nH]c(=O)c2c1nc(-c1ccc(OCCC)c(OCC)c1)n2C	> 10 µM (inactive)
Nc1cc(Cl)ccc1Oc1ccc(Cl)cc1	4.67 µM (inactive)
O=C(Nc1ccccc1NC(=O)NC1CCCCC1)NC1CCCCC1	8.46 µM (inactive)
CCc1ccc(OCC(=O)NC(NC(=S)Nc2ccc(Cl)cc2)C(Cl)(Cl)Cl)cc1 (configuration not stated)	5.13 µM (inactive)
CCOC(=O)/C=C/S(=O)(=O)c1ccc(NC(C)=O)cc1	4.78 µM
COc1ccc(C(=O)NC(=O)Nc2cc(C)ccn2)cc1	9.99 µM (inactive)
COc1cc(/C=C(/C#N)c2nc3ccccc3c(=O)[nH]2)ccc1O	> 10 µM (inactive)
CC1=CC2/C=C(\C)CCC(O)C(O)/C=C/C(=O)C23C(=O)NC(CC(C)C)C3C1C (configuration not stated)	9.69 µM (inactive)
Cc1ccc(N=Cc2cc3c(cc2O)OC(N)=C(C#N)C3c2ccccc2)cc1 (configuration not stated)	> 10 µM (inactive)
COC(=O)/C(=C(/F)Sc1cc(C)c(O)c(C)c1)C(F)(F)F	9.36 µM (inactive)
O=S(=O)(Nc1cccc2c1CCCC2)c1cccc(C(F)(F)F)c1	9.51 µM (inactive)

SMILES	IC50
CCNC(=O)c1c(NC(=O)c2cc(-c3cc(C)ccc3O)n[nH]2)sc2c1CCCC2	9.58 µM (inactive)
Cc1cccc(/C=N/Nc2ccc3ccccc3n2)c1	> 10 µM (inactive)
C#CC(=O)N(c1ccc(OC)c(OC)c1)C(C(=O)NC1CCCC1)c1cccs1 (configuration not stated)	5.28 µM (inactive)
COC(=O)c1ccccc1NC1=C/C(=N\S(=O)(=O)c2cccs2)c2ccccc2C1=O	> 10 µM (inactive)
CC(C)(C)c1ccc(OCC(=O)N/N=C/C2CC=CCC2)cc1 (configuration not stated)	7.48 µM (inactive)
CCNc1nc(Oc2c(Cl)cccc2Cl)cc(C(F)(F)F)n1	2.74 µM
CCOc1ccc(N=Cc2c(O)n(C(C)(C)C)c(=O)[nH]c2=O)cc1	9.2 µM (inactive)
COc1cc(-c2nc3ccc4ccccc4c3c3c2CCC3)cc(OC)c1O	> 10 µM (inactive)
COc1cc(-c2nc3c(c(C)nn3-c3ccccc3)c3cc(OC)c(OC)cc23)ccc1O	9.85 µM (inactive)
Nc1c(C(=O)Nc2ccc(S(=O)(=O)N3CCCC3)cc2)sc2nc3ccc(OC(F)(F)F)cc3cc12	6.79 µM (inactive)
CCN1C/C(=C/c2ccc(OC)c(O)c2)C(=O)/C(=C/c2ccc(OC)c(O)c2)C1	5.33 µM (inactive)
COc1ccc(Cn2c(SCc3cc(C)ccc3C)nc3cc(OC)c(OC)cc3c2=N)cc1	3.55 µM (inactive)
CC(C)C[C@H](NC(=O)c1nc[nH]c1C(=O)NCC(=O)OC(C)(C)C)C(=O)OCc1ccccc1	> 10 µM (inactive)
Cc1sc(NC(=O)c2cccc([N+](=O)[O-])c2)c(C(N)=O)c1-c1ccc(C(C)(C)C)cc1	> 10 µM (inactive)
C=CCN1C(=O)/C(=C/c2ccc(OC(C)=O)c(OCC)c2[N+](=O)[O-])SC1=S	5.3 µM (inactive)
COc1ccc(N=CC2=C(O)c3ccccc3C2=O)c(OC)c1	6.53 µM (inactive)
CC(C)c1nnc(N2C(=O)c3oc4ccccc4c(=O)c3C2c2ccco2)s1 (configuration not stated)	> 10 µM (inactive)
Cc1cc(Nc2ccc(Cl)cc2)nc(NCc2ccccc2)n1	> 10 µM (inactive)
CC(C)(C)c1ccc(S(=O)(=O)NCC(=O)Nc2sc3c(c2C(N)=O)CCCC3)cc1	9.83 µM (inactive)
C=CCSc1n[nH]c(-c2ccc(OCCCC)cc2)n1	> 10 µM (inactive)
CCOC(=O)c1c(C(C)(C)C)oc2ccc(O)cc12	9.38 µM (inactive)
CC(=O)N(C1=C(Cl)C(=O)c2ccccc2C1=O)C1CCCCC1	8.08 µM (inactive)
CCCCC(CC)Cn1c2nc3ccccc3nc2c2c(=N)oc(C)nc21 (configuration not stated)	7.13 µM (inactive)
O=C1NC(=S)S/C1=C\C=C\c1ccc([N+](=O)[O-])o1	9.29 µM (inactive)
O=C(CCl)Nc1cccc(-c2cnc3ccccc3n2)c1	6.64 µM (inactive)

SMILES	IC50
COC(=O)c1c(NC(=O)Nc2ccc(Cl)cc2)sc(C)c1C	9.33 µM (inactive)
C/C(=N\OCc1cccc(C(=O)O)c1)c1ccc(Cl)cc1	6 µM (inactive)
CNC(=O)c1nnsc1S(=O)(=O)c1ccc(Cl)cc1	4.03 µM
COc1ccc(NC(=O)c2cc3cccc(OC)c3oc2=Nc2ccc(C(=O)O)cc2)cc1OC	5.28 µM (inactive)
CCSc1nc2ccccc2n1C(=O)/C=C\c1ccc(OC)c(OC)c1	4.06 µM
Cc1cccc(NS(=O)(=O)c2ccc(C3CCCCC3)cc2)c1	6.93 µM (inactive)
Cc1ccc(Nc2nc(N)c([N+](=O)[O-])c(N3CCC(C)CC3)n2)cc1C	5.69 µM (inactive)
CCOc1ccc(-c2n[nH]c(C)c2Oc2ccc(OC)cc2)c(O)c1	> 10 µM (inactive)
CC(C)c1nnc(NC(=O)c2c(O)c3cccc4c3n(c2=O)CCC4)s1	4.99 µM (inactive)
Cc1ccc(N(c2ncnc(N)c2[N+](=O)[O-])C2CCCCC2)cc1	> 10 µM (inactive)
CC1(C)CC(C(CCN(Cc2ccccc2)C(=O)c2ccco2)c2ccc(F)cc2)CCO1 (configuration not stated)	9.7 µM (inactive)
COc1cc(/C=C(/C#N)c2nc3ccccc3[nH]2)ccc1OCC(=O)Nc1ccccc1C(C)C	4.54 µM
COc1ccc(/C=C2/C(=O)ON=C2c2ccccc2)cc1OC	> 10 µM (inactive)
COc1ccccc1C(=O)Oc1ccc(C(C)C)cc1	> 10 µM (inactive)
Cc1cc2c(cc1C)CSC(c1ccccc1O)SC2	> 10 µM (inactive)
O=C1CC(c2ccccc2)CC(O)=C1C=Nc1cccc(Cl)c1 (configuration not stated)	5.16 µM
CCc1ccc2[nH]c(=O)c(C(c3nnnn3Cc3ccco3)N3CCC(C)CC3)cc2c1 (configuration not stated)	4.96 µM
CCCCCCn1c(CN2CCN(Cc3ccccc3)CC2)nc2c1c(=O)n(C)c(=O)n2C	6.9 µM (inactive)
COC(=O)[C@@H]1[C@@H](C(=O)OC)C2(c3ccccc3-c3ccccc32)N(c2ccc(Cl)cc2)N1C#N	4.53 µM
CC(C)Cn1c(=O)c2ccccc2n2c(SCC(=O)N3c4ccccc4CC3C)nnc12 (configuration not stated)	> 10 µM (inactive)
CC(C)(C)OC(=O)NCCc1nnc(S(=O)(=O)Cc2ccc(Cl)cc2Cl)o1	> 10 µM (inactive)
O=C(CNc1cccc(C(F)(F)F)c1)N/N=C/c1cccc(Br)c1	> 10 µM (inactive)
Cc1cc(C2(c3ccc(O)c(C)c3)C(=O)Nc3ccccc32)ccc1O	> 10 µM (inactive)
CC1CCC(C(C)C)C(OCC(O)CN2CCN(Cc3ccccc3)CC2)C1 (configuration not stated)	7 µM (inactive)
O=C1C(N2CCOCC2)=C(n2nnc3ccccc32)C(=O)c2ccccc21	9.64 µM (inactive)

SMILES	IC50
O=[N+]([O-])c1c(NCCCO)cc(Sc2nc3ccccc3s2)c2nonc12	> 10 µM (inactive)
Cc1sc2ncnc(N3CCCCC3C)c2c1C (configuration not stated)	> 10 µM (inactive)
CCCCCCN=C(CC)c1c(O)n(CCCC)c(=O)[nH]c1=O	7.59 µM (inactive)
O=C1C=CC(=O)N1CCCCCCN1C(=O)C=CC1=O	4.94 µM
Cc1ccc(NP(=O)(Oc2ccccc2F)Oc2ccccc2F)cc1	5.26 µM (inactive)
Cc1cc(C)n(-c2nc(N(c3ccccc3)c3ccccc3)nc(-n3nc(C)cc3C)n2)n1	9.34 µM (inactive)
O=C(Nc1nccs1)c1cc2c(s1)CCCCC2	> 10 µM (inactive)
Cc1ccc(C2CN(C)C3(C(=O)Nc4ccccc43)C23COc2ccccc2C3=O)cc1 (configuration not stated)	> 10 µM (inactive)
CC(=O)/C=C/n1c(=S)oc2ccccc21	4.65 µM
CC(C)NC(=O)c1ccccc1NC(=O)/C=C/c1cccc([N+](=O)[O-])c1	5.83 µM (inactive)
Cc1ccc(/C=C2\SC(=S)N(CCCC(=O)Nc3ccccn3)C2=O)cc1	0.42 µM
CC1CCCC(NCC(O)COC(c2ccc(F)cc2)c2ccc(F)cc2)C1C (configuration not stated)	9.43 µM (inactive)
CCOc1ccc(C2=C/C(=C/c3cccnc3)C(=O)O2)cc1	9.39 µM (inactive)
CCc1nc2c(cnn2-c2ccc(Cl)cc2)c(=O)n1-c1ccc(OC)cc1	8.14 µM (inactive)
C=C(C)Cn1c(N2CCC(Cc3ccccc3)CC2)nc2c1c(=O)[nH]c(=O)n2C	8 µM (inactive)
CCC(C)(C)NC(=O)C(c1cccn1C)N(C(=O)Cn1nnc2ccccc21)c1ccc(F)cc1 (configuration not stated)	> 10 µM (inactive)
C[C@H](NC(=O)c1[nH]cnc1C(=O)Nc1ccc(CNC(=O)OC(C)(C)C)cc1)C(=O)OC(C)(C)C	> 10 µM (inactive)
CCCc1cc(=O)[nH]c(Nc2ccc(N3CCCCC3)cc2)n1	7.76 µM (inactive)
Cc1nc2ccccn2c1C(=O)N=Nc1c(O)n(CCC(C)C)c2ccccc12	> 10 µM (inactive)
Cc1cc(/C=N/n2cnnc2)c(C)n1-c1ccc(OCc2ccc(Cl)cc2Cl)cc1	< 0.16 µM (inactive)
O=C(COCC(=O)Nc1cccc(C(F)(F)F)c1)Nc1cccc(C(F)(F)F)c1	5.44 µM (inactive)
S=C(NCCc1ccc(Cl)cc1)Nc1ccc(Cl)cc1Cl	9.93 µM (inactive)
